Experimental data as given in patent US7582415B2, “Rapid detection of replicating cells” (priority 2001, dated 2009).
Converted amounts (≈) assume the structure as drawn.

Assays:
[1] = tested on: E. coli MG1655/pLafr I (resistant strain); assay: E-test strip susceptibility test with autofluorescent microcolony imaging; assay type: cell-based; conditions: E-test strip 0.016-256 μg tetracycline, TSA, 5 hours at 37° C.
Description: After imaging, the plates were allowed to incubate overnight.

[2] = tested on: E. coli MG1655 (sensitive strain); assay: microbe, parasite or virus in culture; conditions: Escherichia coli, MG1655, 5 h, read-out: zone of inhibition, segment of the E-test strip (minimal inhibitory concentration)
Description: This minimal inhibitory concentration is based on the visualization of zones with no growth, called the zone of inhibition. The zone of inhibition is traditionally measured by the naked eye after an overnight growth.
Experimental Methods: The strains, used in the example and described in Example 13, were diluted to 10^6 CFU/ml and plated on TSA media. […] The microcolonies growing on or near the test strip were imaged using microcolony autofluorescence and non-magnified large area imaging as in previous examples. After imaging, the plates were allowed to incubate overnight.

`CN(C)[C@@H]1C(O)=C(C(N)=O)C(=O)[C@@]2(O)C(O)=C3C(=O)c4c(O)cccc4[C@@](C)(O)[C@H]3C[C@@H]12` [tetracycline] was tested. Which “segment of the E-test strip near which the strain grows” value [1] did it give?
Its value is roughly 256 µg/mL.

And the MIC [2]?
Its MIC is roughly 2 µg/mL (≈ 4.5 µM).
